Measured values published in patent US20080207710A1, “Insulin Secretagogue Drugs” (TOUDAI TLO, LTD., priority 2004, published 2008).

What was measured:
[1] = system: pancreatic β cells (islets of Langerhans); assay: Glucose-stimulated insulin secretion from isolated islets of Langerhans; format: cell-based, mouse; conditions: for insulin secretion on stimulation with glucose: 24 hr with 10 or 100 nM GW501516, 16.7 mM glucose, 1 hr
Protocol: Animals, 6-week-old male C57BL/6J and Lepr^db/Lepr^db mice, were purchased from Clea Japan, Inc., and kept under the following conditions: room temperature, 25° C.; humidity, 60±10%; and 12 hr light/dark cycles (light period, 08:00 to 20:00). All animals were tamed for one week and then subjected to tests. The animals were given free access to food (commercial lab chow, pellet form CE-2, Clea Japan, Inc.) and water. Male C57BL/6J and Lepr^db/Lepr^db mice were used. After clamping the common bile duct at a point close to the duodenum outlet under Nembutal anesthetization, 1 mg/mL collagenase (Wako Pure Chemical Industries, Ltd., Japan) was injected into the common bile duct at a liver side. The pancreas was taken out and incubated at 37° C. for 13 min. Thereafter, Hank's balanced salt solution was added, the pancreas tissue suspension was shaken and then centrifuged to remove supernatants. The pancreas tissue was resuspended in Hank's balanced salt solution, and then subjected to filtration followed by addition of Hank's balanced salt solution to make the tissue suspension volume 35 mL. The resultant tissue suspension was mixed and then allowed to stand for 5 min. Supernatants were removed with an aspirator except that 5 mL of the solution was retained, and the remaining solution was remixed with Hank's balanced salt solution to make the tissue suspension volume 35 mL. […] After incubation in a Krebs-Ringer bicarbonate buffer (KRBB, 119 mM NaCl, 4.74 mM KCl, 2.54 mM CaCl2, 1.19 mM MgCl2, 1.19 mM KH2PO4, 25 mM NaHCO3, and 10 mM HEPES, pH 7.4) containing 2.8 mM glucose at 37° C. for 1 hr, the islets of Langerhans were dispensed in a 24-well plate at 10 islets per well, and incubated in KRBB containing 2.8, 5.6 or 16.7 mM glucose, respectively, at 37° C. for 1 hr. Each supernatant sample collected was assayed for insulin with rat insulin [^125I] Biotrak Assay System (Amersham).

[2] = system: obese animals; conditions: cited from earlier work

Cc1cc(SCc2sc(-c3ccc(C(F)(F)F)cc3)nc2C)ccc1OCC(=O)O [GW501516, 2-{2-methyl-4-[({4-methyl-2-[4-(trifluoromethyl)phenyl]-1,3-thiazol-5-yl}methyl)thio]phenoxy}acetic acid]
dose dependence of insulin secretion when stimulated with elevated glucose levels ([1]; 10 or 100 nM GW501516, elevated glucose levels): increased dose-dependently insulin secretion | insulin secretion on stimulation with glucose ([1]; islets from C57BL/6J mice): significant insulin secretion | insulin secretion on stimulation with glucose ([1]; islets from Lepr^db/Lepr^db mice): significant insulin secretion | effect on diabetes (plasma glucose and blood insulin levels) ([2]; genetically obese animals): improve diabetes as revealed by the decrease in plasma glucose and blood insulin levels | effect on obesity and insulin resistance ([2]; obese animals induced by high-fat dieting): ameliorate obesity and insulin resistance
